PubChem BioAssay (NCI)
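Briefly, cells in 96-well plates were exposed to five compound concentrations for 48 h, and endpoints were estimated by linear interpolation. GI50: concentration for 50% inhibition of growth. TGI denotes the concentration required for complete inhibition of growth.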

Tests used:
Assay in all cases: inhibition of tumour cell growth, NCI panel, 48 h
786-0 renal = system: 786-0 renal
A549 NSCLC = system: A549 NSCLC
ACHN renal = system: ACHN renal
BT-549 breast = system: BT-549 breast
CAKI-1 renal = system: CAKI-1 renal
CCRF-CEM leukemia = system: CCRF-CEM leukemia
COLO 205 colon = system: COLO 205 colon
DU-145 prostate = system: DU-145 prostate
EKVX NSCLC = system: EKVX NSCLC
HCT-116 colon = system: HCT-116 colon
HCT-15 colon = system: HCT-15 colon
HOP-62 NSCLC = system: HOP-62 NSCLC
HT29 colon = system: HT29 colon
IGROV1 ovarian = system: IGROV1 ovarian
K-562 leukemia = system: K-562 leukemia
KM12 colon = system: KM12 colon
LOX IMVI melanoma = system: LOX IMVI melanoma
M14 melanoma = system: M14 melanoma
MCF7 breast = system: MCF7 breast
MDA-MB-231 breast = system: MDA-MB-231 breast
MDA-MB-435 = system: MDA-MB-435
MOLT-4 leukemia = system: MOLT-4 leukemia
NCI-H226 lung = system: NCI-H226 lung
NCI-H23 lung = system: NCI-H23 lung
NCI-H460 lung = system: NCI-H460 lung
NCI/ADR-RES ovarian = system: NCI/ADR-RES ovarian
OVCAR-3 ovarian = system: OVCAR-3 ovarian
OVCAR-5 ovarian = system: OVCAR-5 ovarian
OVCAR-8 ovarian = system: OVCAR-8 ovarian
RXF 393 renal = system: RXF 393 renal
SF-268 CNS = system: SF-268 CNS
SF-295 CNS = system: SF-295 CNS
SK-MEL-2 melanoma = system: SK-MEL-2 melanoma
SK-MEL-28 melanoma = system: SK-MEL-28 melanoma
SK-MEL-5 melanoma = system: SK-MEL-5 melanoma
SK-OV-3 ovarian = system: SK-OV-3 ovarian
SN12C renal = system: SN12C renal
SNB-19 CNS = system: SNB-19 CNS
SNB-75 CNS = system: SNB-75 CNS
SR leukemia = system: SR leukemia
SW-620 colon = system: SW-620 colon
T-47D breast = system: T-47D breast
TK-10 renal = system: TK-10 renal
U251 CNS = system: U251 CNS
UACC-257 melanoma = system: UACC-257 melanoma
UACC-62 melanoma = system: UACC-62 melanoma
UO-31 renal = system: UO-31 renal
A498 renal = system: A498 renal
HL-60(TB) leukemia = system: HL-60(TB) leukemia
HOP-92 NSCLC = system: HOP-92 NSCLC
MALME-3M melanoma = system: MALME-3M melanoma
NCI-H522 lung = system: NCI-H522 lung
OVCAR-4 ovarian = system: OVCAR-4 ovarian
PC-3 prostate = system: PC-3 prostate
RPMI-8226 leukemia = system: RPMI-8226 leukemia
SF-539 CNS = system: SF-539 CNS

`CC[C@]1(Cc2ccc(OC)c(OC)c2)[C@@H]2C[C@@H](C(=O)OC)ON2O[C@H](OC2CCCC2(c2ccccc2)c2ccccc2)[C@@H]1OC(C)=O` (some centres undefined) was tested, and the TGI (786-0 renal) was > 100000 nM, the TGI (A549 NSCLC) was > 100000 nM and the TGI (ACHN renal) was > 100000 nM. For the same compound, the TGI (BT-549 breast) was > 100000 nM, the TGI (CAKI-1 renal) was > 100000 nM and the TGI (CCRF-CEM leukemia) was > 100000 nM. For the same compound, the TGI (COLO 205 colon) was > 100000 nM, the TGI (DU-145 prostate) was > 100000 nM and the TGI (EKVX NSCLC) was > 100000 nM. The TGI (HCT-116 colon) was > 100000 nM, the TGI (HCT-15 colon) was > 100000 nM and the TGI (HOP-62 NSCLC) was > 100000 nM. For the same compound, the TGI (HT29 colon) was > 100000 nM, the TGI (IGROV1 ovarian) was > 100000 nM and the TGI (K-562 leukemia) was > 100000 nM. For the same compound, the TGI (KM12 colon) was > 100000 nM, the TGI (LOX IMVI melanoma) was > 100000 nM and the TGI (M14 melanoma) was > 100000 nM. The TGI (MCF7 breast) was > 100000 nM, the TGI (MDA-MB-231 breast) was > 100000 nM and the TGI (MDA-MB-435) was > 100000 nM. For the same compound, the TGI (MOLT-4 leukemia) was > 100000 nM, the TGI (NCI-H226 lung) was > 100000 nM and the TGI (NCI-H23 lung) was > 100000 nM. For the same compound, the TGI (NCI-H460 lung) was > 100000 nM, the TGI (NCI/ADR-RES ovarian) was > 100000 nM and the TGI (OVCAR-3 ovarian) was > 100000 nM. For the same compound, the TGI (OVCAR-5 ovarian) was > 100000 nM, the TGI (OVCAR-8 ovarian) was > 100000 nM and the TGI (RXF 393 renal) was > 100000 nM. For the same compound, the TGI (SF-268 CNS) was > 100000 nM, the TGI (SF-295 CNS) was > 100000 nM and the TGI (SK-MEL-2 melanoma) was > 100000 nM. The TGI (SK-MEL-28 melanoma) was > 100000 nM, the TGI (SK-MEL-5 melanoma) was > 100000 nM and the TGI (SK-OV-3 ovarian) was > 100000 nM. For the same compound, the TGI (SN12C renal) was > 100000 nM, the TGI (SNB-19 CNS) was > 100000 nM and the TGI (SNB-75 CNS) was > 100000 nM. For the same compound, the TGI (SR leukemia) was > 100000 nM, the TGI (SW-620 colon) was > 100000 nM and the TGI (T-47D breast) was > 100000 nM. The TGI (TK-10 renal) was > 100000 nM, the TGI (U251 CNS) was > 100000 nM and the TGI (UACC-257 melanoma) was > 100000 nM. The TGI (UACC-62 melanoma) was > 100000 nM and the TGI (UO-31 renal) was > 100000 nM.
Compound `O=[N+]([O-])c1ccc2scc3c4ccccc4nc-3c2c1` has a GI50 (786-0 renal) of 1840 nM, a TGI (786-0 renal) of 3290 nM and a GI50 (A498 renal) of 509 nM. For the same compound, the TGI (A498 renal) was 2070 nM, the GI50 (A549 NSCLC) was 1740 nM and the TGI (A549 NSCLC) was 3850 nM. For the same compound, the GI50 (ACHN renal) was 1500 nM, the TGI (ACHN renal) was 2950 nM and the GI50 (BT-549 breast) was 1730 nM. It also gave a TGI (BT-549 breast) of 3180 nM, a GI50 (CCRF-CEM leukemia) of 611 nM and a TGI (CCRF-CEM leukemia) of 5160 nM. It also gave a GI50 (COLO 205 colon) of 1790 nM, a TGI (COLO 205 colon) of 3520 nM and a GI50 (DU-145 prostate) of 1460 nM. For the same compound, the TGI (DU-145 prostate) was 2770 nM, the GI50 (HCT-116 colon) was 1330 nM and the TGI (HCT-116 colon) was 2940 nM. It also gave a GI50 (HL-60(TB) leukemia) of 1170 nM, a TGI (HL-60(TB) leukemia) of 5260 nM and a GI50 (HOP-62 NSCLC) of 1780 nM. The TGI (HOP-62 NSCLC) was 3240 nM, the GI50 (HOP-92 NSCLC) was 1660 nM and the TGI (HOP-92 NSCLC) was 3280 nM. For the same compound, the GI50 (HT29 colon) was 1380 nM, the TGI (HT29 colon) was 3030 nM and the GI50 (K-562 leukemia) was 402 nM. The TGI (K-562 leukemia) was > 100000 nM, the GI50 (KM12 colon) was 1590 nM and the TGI (KM12 colon) was 2960 nM. For the same compound, the GI50 (LOX IMVI melanoma) was 1360 nM, the TGI (LOX IMVI melanoma) was > 100000 nM and the GI50 (M14 melanoma) was 1850 nM. For the same compound, the TGI (M14 melanoma) was 3580 nM, the GI50 (MALME-3M melanoma) was 1150 nM and the TGI (MALME-3M melanoma) was 2640 nM. The GI50 (MCF7 breast) was 1290 nM, the TGI (MCF7 breast) was 3610 nM and the GI50 (MDA-MB-231 breast) was 1650 nM. It also gave a TGI (MDA-MB-231 breast) of 3220 nM, a GI50 (MDA-MB-435) of 1540 nM and a TGI (MDA-MB-435) of 3940 nM. It also gave a GI50 (NCI-H226 lung) of 2220 nM, a TGI (NCI-H226 lung) of 6080 nM and a GI50 (NCI-H23 lung) of 1900 nM. It also gave a TGI (NCI-H23 lung) of 5050 nM, a GI50 (NCI-H522 lung) of 342 nM and a TGI (NCI-H522 lung) of 1540 nM. The GI50 (OVCAR-3 ovarian) was 415 nM, the TGI (OVCAR-3 ovarian) was 1630 nM and the GI50 (OVCAR-4 ovarian) was 1670 nM. For the same compound, the TGI (OVCAR-4 ovarian) was 3220 nM, the GI50 (OVCAR-5 ovarian) was 1910 nM and the TGI (OVCAR-5 ovarian) was 3750 nM. The GI50 (PC-3 prostate) was 1730 nM, the TGI (PC-3 prostate) was 3500 nM and the GI50 (RPMI-8226 leukemia) was 2120 nM. It also gave a TGI (RPMI-8226 leukemia) of 6180 nM, a GI50 (RXF 393 renal) of 1430 nM and a TGI (RXF 393 renal) of 2780 nM. The GI50 (SF-268 CNS) was 1480 nM, the TGI (SF-268 CNS) was 2860 nM and the GI50 (SF-295 CNS) was 1780 nM. The TGI (SF-295 CNS) was 3870 nM, the GI50 (SF-539 CNS) was 1800 nM and the TGI (SF-539 CNS) was 3350 nM. The GI50 (SK-MEL-2 melanoma) was 1660 nM, the TGI (SK-MEL-2 melanoma) was 3310 nM and the GI50 (SK-MEL-28 melanoma) was 1720 nM. For the same compound, the TGI (SK-MEL-28 melanoma) was 3140 nM, the GI50 (SK-MEL-5 melanoma) was 1620 nM and the TGI (SK-MEL-5 melanoma) was 3030 nM. For the same compound, the GI50 (SK-OV-3 ovarian) was 1810 nM, the TGI (SK-OV-3 ovarian) was 3230 nM and the GI50 (SNB-19 CNS) was 1960 nM. The TGI (SNB-19 CNS) was 4080 nM, the GI50 (SNB-75 CNS) was 1370 nM and the TGI (SNB-75 CNS) was 2660 nM. It also gave a GI50 (SW-620 colon) of 462 nM, a TGI (SW-620 colon) of 1700 nM and a GI50 (T-47D breast) of 784 nM. For the same compound, the TGI (T-47D breast) was 3320 nM, the GI50 (TK-10 renal) was 1080 nM and the TGI (TK-10 renal) was 2320 nM. It also gave a GI50 (U251 CNS) of 600 nM, a TGI (U251 CNS) of 2000 nM and a GI50 (UACC-257 melanoma) of 1320 nM. It also gave a TGI (UACC-257 melanoma) of 2720 nM, a GI50 (UACC-62 melanoma) of 1720 nM and a TGI (UACC-62 melanoma) of 3340 nM. It also gave a GI50 (UO-31 renal) of 1160 nM and a TGI (UO-31 renal) of 2510 nM.
